The record followed here is BindingDB's records for doi:10.1016/j.bioorg.2016.03.010 (Universiti Teknologi Mara (Uitm), Puncak Alam Campus, 2016).

Urease, sequence (P07374 whole entry): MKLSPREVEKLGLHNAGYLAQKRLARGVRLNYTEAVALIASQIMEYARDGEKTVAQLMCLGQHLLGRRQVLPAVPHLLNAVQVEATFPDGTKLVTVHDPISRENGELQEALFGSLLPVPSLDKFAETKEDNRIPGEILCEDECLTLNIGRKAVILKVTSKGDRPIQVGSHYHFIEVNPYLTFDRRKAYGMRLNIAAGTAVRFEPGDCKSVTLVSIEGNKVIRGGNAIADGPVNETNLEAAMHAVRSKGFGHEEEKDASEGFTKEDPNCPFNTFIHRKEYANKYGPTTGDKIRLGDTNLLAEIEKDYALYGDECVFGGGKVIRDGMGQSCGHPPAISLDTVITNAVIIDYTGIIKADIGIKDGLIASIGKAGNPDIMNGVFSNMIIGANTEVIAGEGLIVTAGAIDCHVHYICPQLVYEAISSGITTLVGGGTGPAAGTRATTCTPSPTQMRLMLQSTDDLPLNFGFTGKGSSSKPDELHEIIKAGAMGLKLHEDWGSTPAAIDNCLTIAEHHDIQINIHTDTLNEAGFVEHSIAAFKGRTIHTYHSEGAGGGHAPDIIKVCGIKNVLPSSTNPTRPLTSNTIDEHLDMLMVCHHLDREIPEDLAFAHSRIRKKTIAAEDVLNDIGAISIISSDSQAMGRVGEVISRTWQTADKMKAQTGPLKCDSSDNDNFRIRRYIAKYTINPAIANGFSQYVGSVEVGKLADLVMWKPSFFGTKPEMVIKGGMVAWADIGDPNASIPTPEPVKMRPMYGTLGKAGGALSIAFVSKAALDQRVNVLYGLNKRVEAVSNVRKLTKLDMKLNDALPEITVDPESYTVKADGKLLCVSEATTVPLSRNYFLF

The experiment concerns the target Urease (Canavalia ensiformis, UniProt P07374). Put plainly: Urease Inhibition Assay. The conditions noted are these: pH 6.8; 30 °C. The procedure: To understand the binding modes of the compounds given in Table 1, all ligands were docked into the binding site of Urease enzyme. The top ranked conformations of each ligand were saved in a separate database for further evaluation. The docking results well correlated with the experimental results. The reaction mixtures, comprising 25 uL of enzyme (jack bean urease, Sigma aldrich) solution and 55 uL of buffers containing 100 mM urea, were incubated with 5 uL of the test compounds (0.5 mM concentration) at 30 °C for 15 min in 96-well plates. For the kinetics assessment the urea concentrations were changed from 2 to 24 mM. Urease activity was determined by measuring ammonia production using the indophenol method as described by Weatherburn. Briefly, 45 uL of phenol reagent (1% w/v phenol and 0.005% w/v sodium nitroprusside (Sigma Aldrich)) and, 70 uL of alkali reagent (0.5% w/v NaOH (Sigma Aldrich) and 0.1% active chloride NaOCl (Sigma Aldrich)) were added to each well. The increasing absorbance at 630 nm was measured after 50 min, using a microplate reader (Molecular Device, USA). All reactions were performed in triplicate in a final volume of 200 uL. The results (change in absorbance per min) were processed by using SoftMax-Pro software (molecular Device, USA). The entire assays were performed at pH 6.8.
The term IC50 denotes the concentration at which inhibition is half-maximal. High values mean lower potency, low ones higher potency. With `O=C(NNC(=S)Nc1ccccc1Br)c1ccc(-c2nc3ccccc3s2)cc1` [2-(4-(benzo[d]thiazol-2-yl)benzoyl)-N-(2-bromophenyl)hydrazinecarbothioamide (4)], the IC50 was 6.9 µM.

Regarding `O=C(NNC(=S)Nc1ccccc1Cl)c1ccc(-c2nc3ccccc3s2)cc1` [2-(4-(benzo[d]thiazol-2-yl)benzoyl)-N-(2-chlorophenyl)hydrazinecarbothioamide (3)], the IC50 came out at 4.3 µM.

For `O=C(NNC(=S)Nc1ccccc1F)c1ccc(-c2nc3ccccc3s2)cc1` [2-(4-(benzo[d]thiazol-2-yl)benzoyl)-N-(2-fluorophenyl)hydrazinecarbothioamide (2)], half-maximal inhibition (IC50) was put at 3.4 µM.

In turn, `O=C(NNC(=S)Nc1cccc(F)c1)c1ccc(-c2nc3ccccc3s2)cc1` [2-(4-(benzo[d]thiazol-2-yl)benzoyl)-N-(3-fluorophenyl)hydrazinecarbothioamide (12)] returned a half-inhibitory concentration (IC50) of 6.3 µM.

Regarding `COc1cccc(NC(=S)NNC(=O)c2ccc(-c3nc4ccccc4s3)cc2)c1` [2-(4-(benzo[d]thiazol-2-yl)benzoyl)-N-(3-methoxyphenyl)hydrazinecarbothioamide (15)], the IC50 came out at 28.1 µM. Against the preceding compound, the IC50 is about 4.5-fold higher.

For `O=C(NNC(=S)Nc1ccc(C(F)(F)F)cc1)c1ccc(-c2nc3ccccc3s2)cc1` [2-(4-(benzo[d]thiazol-2-yl)benzoyl)-N-(4-(trifluoromethyl)phenyl)hydrazine-carbothioamide (17)], the IC50 was 1.6 µM.

Regarding `O=C(NNC(=S)Nc1ccc(Br)cc1)c1ccc(-c2nc3ccccc3s2)cc1` [2-(4-(benzo[d]thiazol-2-yl)benzoyl)-N-(4-bromophenyl)hydrazinecarbothioamide (7)], half-maximal inhibition (IC50) required 13.7 µM.

For `O=C(NNC(=S)Nc1ccc(Cl)cc1)c1ccc(-c2nc3ccccc3s2)cc1` [2-(4-(benzo[d]thiazol-2-yl)benzoyl)-N-(4-chlorophenyl)hydrazinecarbothioamide (8)], the IC50 worked out at 5.5 µM.

Consider `O=C(NNC(=S)Nc1ccc(F)cc1)c1ccc(-c2nc3ccccc3s2)cc1` [2-(4-(benzo[d]thiazol-2-yl)benzoyl)-N-(4-fluorophenyl)hydrazinecarbothioamide (6)], for which the concentration for half-maximal inhibition (IC50) came to 2.5 µM.

The compound `COc1ccc(NC(=S)NNC(=O)c2ccc(-c3nc4ccccc4s3)cc2)cc1` [2-(4-(benzo[d]thiazol-2-yl)benzoyl)-N-(4-methoxyphenyl)hydrazinecarbothioamide (9)] had an IC50 of 13.6 µM.

`O=C(NNC(=S)Nc1ccc([N+](=O)[O-])cc1)c1ccc(-c2nc3ccccc3s2)cc1` [2-(4-(benzo[d]thiazol-2-yl)benzoyl)-N-(4-nitrophenyl)hydrazinecarbothioamide (10)] yielded an IC50 of 1.4 µM.

Consider `Cc1cccc(NC(=S)NNC(=O)c2ccc(-c3nc4ccccc4s3)cc2)c1` [2-(4-(benzo[d]thiazol-2-yl)benzoyl)-N-(m-tolyl)hydrazinecarbothioamide (11)], for which the IC50 was found to be 18.7 µM.

On to `Cc1ccccc1NC(=S)NNC(=O)c1ccc(-c2nc3ccccc3s2)cc1` [2-(4-(benzo[d]thiazol-2-yl)benzoyl)-N-(o-tolyl)hydrazinecarbothioamide (1)], for which the IC50 stood at 7.4 µM.

On to `Cc1ccc(NC(=S)NNC(=O)c2ccc(-c3nc4ccccc4s3)cc2)cc1` [2-(4-(benzo[d]thiazol-2-yl)benzoyl)-N-(p-tolyl)hydrazinecarbothioamide (5)], for which the midpoint of inhibition, the IC50, lay at 10.4 µM.

`O=C(NNC(=S)Nc1ccccc1)c1ccc(-c2nc3ccccc3s2)cc1` [2-(4-(benzo[d]thiazol-2-yl)benzoyl)-N-phenylhydrazinecarbothioamide (20)] came in with an IC50 of 19.1 µM.

Consider `O=C(NNC(=S)Nc1cccc(Br)c1)c1ccc(-c2nc3ccccc3s2)cc1` [4-(1,3-benzothiazol-2-yl)-N-{[(3-bromophenyl)carbamothioyl]amino}benzamide (13)], for which half-maximal inhibition (IC50) required 11.4 µM.

For `O=C(NNC(=S)Nc1cccc([N+](=O)[O-])c1)c1ccc(-c2nc3ccccc3s2)cc1` [4-(1,3-benzothiazol-2-yl)-N-{[(3-nitrophenyl)carbamothioyl]amino}benzamide (14)], the IC50 turned out to be 5.7 µM.

`O=C(NNC(=S)NC12CC3CC(CC(C3)C1)C2)c1ccc(-c2nc3ccccc3s2)cc1` [N-(adamantan-1-yl)-2-(4-(benzo[d]thiazol-2-yl)benzoyl)hydrazinecarbothioamide (19)] had an IC50 of 34.4 µM.
